Reference: article PMC12185579, “Impact of nephrotoxins and oxidants on survival and transport function of hiPSC-derived renal proximal tubular cells” (Archives of Toxicology, 2025)
Where “and” joins values, the source holds several entries; their conditions need not be identical. Identical values can stand only once. Like-named read-outs stand apart in the source and are kept apart here.

What was measured:
[1] = system: hiPSC; test: EdU incorporation (proliferation), hiPSC; assay type: cell-based, human; settings: 24 h, hiPSC's IC20 and IC50
Method: (§1) To investigate the effect of toxins on the proliferation rate, the incorporation of EdU into S-phase cells was determined using the EdU-Click 488 assay according to the manufacturer’s protocol (Baseclick GmbH, Tutzing, Germany) as reported earlier (Mboni-Johnston et al. [2023]).

[2] = system: diffD3; test: EdU incorporation (proliferation), diffD3; assay type: cell-based, human; settings: diffD3, 24 h, hiPSC's IC20 and IC50
Method: as §1

[3] = system: diffD9; test: EdU incorporation (proliferation), diffD9; assay type: cell-based, human; settings: diffD9, 24 h, hiPSC's IC20 and IC50
Method: as §1

[4] = system: hiPSC; test: TUNEL assay (apoptosis), hiPSC; assay type: cell-based, human; settings: 24 h, IC20 and IC50 of the hiPSC
Method: (§2) To verify whether the substances analyzed induce apoptosis in the cells at different stages of differentiation, the TUNEL (terminal deoxynucleotidyl transferase-mediated dUTP-fluorescein nick-end labeling) assay was performed with cells grown on coverslips using the In-Situ Cell Death Detection Assay Kit (Roche GmbH, Grenzach-Wyhlen, Germany) according to the manufacturer’s instructions. The TUNEL assay visualizes free hydroxyl groups from fragmented DNA produced during apoptosis by labeling them with modified nucleotides through an enzymatic reaction (Gavrieli et al. [1992]). The coverslips were mounted with […]® Antifade Mounting Medium containing DAPI and sealed with nail polish. Fluorescence images were acquired using a fluorescence microscope (Olympus BX43 Upright Microscope, Olympus, Shinjuku, Tokyo, Japan) at 200-fold magnification and analyzed using ImageJ 1.51j8 (Schneider et al. [2012]). TUNEL-positive cells were referenced to the total number of cells and normalized to the untreated control.

[5] = system: diffD3; test: TUNEL assay (apoptosis), diffD3; assay type: cell-based, human; settings: diffD3, 24 h, IC20 and IC50 of the hiPSC
Method: as §2

[6] = system: diffD9; test: TUNEL assay (apoptosis), diffD9; assay type: cell-based, human; settings: diffD9, 24 h, IC20 and IC50 of the hiPSC (CisPt: a higher concentration added)
Method: as §2

[7] = system: senescence-associated genes (β-GAL, IL-8, p21) in hiPSC; test: RT-PCR senescence-associated genes, hiPSC; assay type: cell-based, human; settings: 48 h after a 24 h treatment
Method: (§3) RNA was isolated using the RNeasy Mini Kit and RNase-free DNase Set (Qiagen, Venlo, The Netherlands) according to the manufacturer’s protocol as reported previously (Mboni-Johnston et al. [2023]). The primer sequences (Table S1, supplement) used for the mRNA expression analyses were designed with the help of NCBI (https://www.ncbi.nlm.nih.gov/nuccore/) and validated for specificity. At the end of the run, data were analyzed using CFX Manager software (v3.1, Bio-Rad Laboratories, Hercules, CA, USA) according to the manufacturer’s instructions. All samples were run with three technical replicates. The Cq values obtained for the genes of interest were first normalized to the mean Cq values obtained for the housekeeping genes ACT-β and RPL-32 and then for the control samples and expressed as a fold of this mean value. Changes in gene expression of ≤ 0.5- and ≥ twofold were considered biologically relevant.

[8] = system: senescence-associated genes (β-GAL, IL-8, p21) in diffD3; test: RT-PCR senescence-associated genes, diffD3; assay type: cell-based, human; settings: diffD3, 48 h after a 24 h treatment
Method: as §3

[9] = system: senescence-associated genes (β-GAL, IL-8, p21) in diffD9; test: RT-PCR senescence-associated genes, diffD9; assay type: cell-based, human; settings: diffD9, 48 h after a 24 h treatment
Method: as §3

[10] = system: stem cell markers, PTEC markers and transporters mRNA in diffD9; test: RT-PCR marker gene expression at diffD9 after treatment at diffD3; assay type: cell-based, human; settings: for expression of megalin and cubilin: treated at diffD3, analyzed at diffD9
Method: as §3

[11] = system: diffD9; test: FITC-albumin uptake at diffD9 after treatment at diffD3; assay type: cell-based, human; settings: treated 24 h at diffD3 with hiPSC's IC20 and IC50, analyzed at diffD9
Method: Cells were incubated with serum-free medium with/without 100 µg/ml FITC-albumin for 2 h at 37 °C, and uptake was stopped with ice-cold PBS. Cells were then harvested from Matrigel-coated wells with trypsin/EDTA, and albumin uptake was analyzed by flow cytometry [Becton Dickinson, Accuri™ C6 plus (Heidelberg, Germany)] as previously reported (Mboni-Johnston et al. [2023]).

[12] = system: hiPSC, diffD3 and diffD9; test: Cell viability of all differentiation stages, with and without pan-caspase inhibitor QVD; assay type: cell-based, human; settings: 10 µM QVD
Method: (§4) After 24 h of exposure, the viability of the undifferentiated, differentiating, and differentiated cells was examined using the Alamar Blue Assay (O'Brien et al. [2000]), as described previously (Mboni-Johnston et al. [2023]). The relative viability of the cells in the corresponding untreated controls was set to 100%.

[13] = system: hiPSC; parameters: method as in Mboni-Johnston et al. [2023]; settings: as given in Fig. 7 legend, value from former study ref Mboni-Johnston et al. [2023], cited from earlier work
[14] = system: diffD9; parameters: method as in Mboni-Johnston et al. [2023]; settings: ref Mboni-Johnston et al. [2023]; cited from earlier work
[15] = system: hiPSC, diffD3 and diffD9; parameters: method as in Mboni-Johnston et al. [2023]; settings: diffD3, differentiated PTELC ref Mboni-Johnston et al. [2023]; cited from earlier work
[16] = system: hiPSC; test: Alamar Blue cell viability, undifferentiated hiPSC; assay type: cell-based, human; settings: for IC20 / IC50: Homo sapiens; for IC20: read-out: hiPSC's IC20
Method: as §4

[17] = system: diffD3 (hiPSC differentiating into PTELC); test: Alamar Blue cell viability, differentiating cells day 3; assay type: cell-based, human; settings: for IC50 of diffD3, fold lower than those of hiPSC and diffD9: Alamar Blue, 24 h; for IC50: Homo sapiens, diffD3, 24 h treatment
Method: as §4

[18] = system: diffD9 (hiPSC differentiated into PTELC); test: Alamar Blue cell viability, differentiated cells day 9; assay type: cell-based, human; settings: diffD9, 24 h treatment; for IC20: read-out: IC20 (inhibitory concentration where 20% of the cells are dead)
Method: as §4

[19] = system: PTEC markers and transporters mRNA in diffD9; test: RT-PCR marker gene expression in diffD9 treated at diffD9; assay type: cell-based, human; settings: diffD9, 24 h; for Aqp-1 mRNA expression: IC20 and IC50, vs untreated diffD9; for Pept-1 mRNA expression: IC50 (tBHQ not statistically significant); for Meg (megalin) mRNA expression: Mena IC20 and IC50, tBHQ IC50 (not statistically significant)
Method: as §3

[20] = system: diffD9; test: FITC-albumin uptake (flow cytometry) in diffD9 treated at diffD9; assay type: cell-based, human; settings: diffD9, 24 h treatment (menadione: IC50)
Method: The effect of toxins on the transport function of hiPSC-derived PTELC was examined by adding fluorescently labeled bovine serum albumin (FITC-BSA) (Sigma-Aldrich, 10 mg/ml) to the culture medium. Cells were incubated with serum-free medium with/without 100 µg/ml FITC-albumin for 2 h at 37 °C, and uptake was stopped with ice-cold PBS. Cells were then harvested from Matrigel-coated wells with trypsin/EDTA, and albumin uptake was analyzed by flow cytometry [Becton Dickinson, Accuri™ C6 plus (Heidelberg, Germany)] as previously reported (Mboni-Johnston et al. [2023]).

[21] = system: human liver cell line HepG2; parameters: method as in Chen and Cederbaum [1997]; settings: HepG2, after 18 h of incubation ref Chen and Cederbaum [1997]; read-out: IC50 (cytotoxicity); cited from earlier work
[22] = system: endothelial cells; parameters: method as in Karimi et al. [2019]; settings: endothelial cells ref Karimi et al. [2019]; read-out: IC50 (cell viability); cited from earlier work
[23] = system: mammary epithelial cells; parameters: method as in Jin et al. [2016]; settings: mammary epithelial cells ref Jin et al. [2016]; read-out: IC50 (cell viability); cited from earlier work
[24] = as given in Fig. 7 legend, concentration used to treat diffD3 for 24 h
[25] = as given in Fig. 7 legend, concentration used to treat diffD3 for 24 h, read-out: hiPSC's IC50
[26] = hiPSC, 24 h treatment, read-out: IC50 (cell viability, Alamar Blue)

SMILES | EdU incorporation (proliferation) vs untreated control [1] | EdU incorporation (proliferation) vs untreated control [2] | EdU incorporation (cells in S-phase) vs untreated control [3] | frequency of TUNEL-positive cells [5] | mRNA expression of senescence-associated genes (β-GAL, IL-8, p21) [8] | mRNA expression of senescence-associated genes (β-GAL, IL-8, p21) [9] | albumin uptake [11] | IC20 [16, 24] | IC50 [16, 25] | IC50 [16, 26] | IC50 of diffD3, fold lower than those of hiPSC and diffD9 [17] | IC50 [17] | IC50 ([18]; Homo sapiens, 24 h) | IC20 ([18]; Homo sapiens) | IC50 [18] | Aqp-1 mRNA expression [19] | Pept-1 mRNA expression [19] | Meg (megalin) mRNA expression [19] | albumin transport (FITC-albumin uptake) [20] | expression of megalin and cubilin [10] | further results
N.N.[Cl][Pt][Cl] [CisPt, cisplatin] | inhibited the likely proliferation-associated EdU incorporation in hiPSC in a dose-dependent manner | not affected | not affected | increased in a dose-dependent manner | only p21 was significantly higher expressed in diffD3 | no extensive expression | strong effect | – | – | – | – | – | – | – | – | – | – | – | – | – | frequency of TUNEL-positive cells [4]: increased in a dose-dependent manner; frequency of TUNEL-positive cells [6]: increased in a dose-dependent manner; mRNA expression of senescence-associated genes (β-GAL, IL-8, p21) [7]: no extensive expression; long-term changes in marker transcripts ([10]; treated 24 h at diffD3 with iPSCs' IC20, analyzed at diffD9): all but two transcripts being significantly reduced; cell viability under co-treatment with pan-caspase inhibitor QVD vs mono-treatment [12]: significant restoration of cell viability to almost control level; IC20 ([13]; read-out: hiPSC's IC20): 0.3 µM; IC50 ([13]; read-out: hiPSC's IC50): 1 µM; albumin uptake capacity of PTELC [14]: reduced the albumin uptake capacity; relative sensitivity of differentiation stages [15]: hiPSC and diffD3 were more sensitive to CisPt than differentiated PTELC
CC1=CC(=O)c2ccccc2C1=O [Mena, menadione] | no significant differences in EdU incorporation | inhibited proliferation | no significant differences in EdU incorporation | significantly increased | – | IL-8 levels significantly increased | no effect on albumin transport itself | 3 µM | 6 µM | 16.2 µM | about four | 4.1 µM | 17.6 µM | 11 µM | 17 µM | significant and dose-dependent decrease | increased significantly | significant and dose-dependent decrease | significant decrease | low but significant effect | IC50 ([18]; listed as Menadione): 18 µM; Nanog mRNA expression ([19]; IC20): significantly increased; CD13 mRNA expression ([19]; IC50): increased significantly; Pept-2 mRNA expression ([19]; IC50): reduced expression; IC50 [21]: 18 to 19 µM
CC(C)(C)c1cc(O)ccc1O [tBHQ, tert-butylhydroquinone] | no significant differences in EdU incorporation | inhibited proliferation | no significant differences in EdU incorporation | significantly increased | IL-8 levels significantly increased | – | – | 4 µM | 8 µM | 18.5 µM | 7- to 12 | 2.8 µM | 34.5 µM | 15 µM | 34 µM and 35 µM | significant dose-dependent decrease | increased above twofold | increased above twofold | increased the transport | neither showed a relevant effect | sensitivity of hiPSC compared to diffD9 ([16]; Alamar Blue, 24 h): twice as sensitive; Cad-16 mRNA expression ([19]; IC50, statistically significant): increased above twofold; IC50 [22]: 60 µM; IC50 [23]: 50 µM
